Legend:
[1] = Ex vivo biodistribution after i.v. injection; type: in vivo, Wistar rats
Protocol: (§1) Approximately 0.2 mL/31.1 MBq of compound was administered i.v. At established time points after injection (15 min, 30 min, 1 h, 2 h, 4 h and 6 h), the animals were euthanized by cervical dislocation and dissected. Selected organs and tissues were weighed, and their radioactivity was measured using a NaI(Tl) crystal gamma counter. The results were adjusted for the radioactive decay of ^18F. The physiological distribution was calculated and expressed in terms of the percentage of administrated dose found in each of the selected organs (%ID) or per gram of tissues/organ (%ID/g) with suitable standards of the injected dose.
The results of radiopharmaceutical uptake are presented as a percentage of the dose administered per gram of tissue (%ID/g) in the form of an average with standard deviation (%ID/g; mean ± standard deviation (SD)). Where applicable, statistical analysis was performed with one-way analysis of variance (ANOVA) using GraphPad Prism software (GraphPad Software, La Jolla, CA, USA).

[2] = Blood activity clearance and pharmacokinetic parameters of radiolabelled compounds; type: in vivo; details: radiolabelled compound, rat
Protocol: as §1
For [^18F]SYN2 the initial fast decrease mainly represents the equilibrium between the intravascular and extravascular components, and the second slower phase represents the metabolism.

[3] = 6 h after dosing, listed as [18F]SYN2

Compound: CN(C)c1ccc2cc3ccc(N(C)C)cc3[n+](CC[18F])c2c1 [[^18F]SYN2]
- Mean %ID, Kidneys ([1]; 2 h after dosing): 9.65 (1.42) %ID
- Mean %ID, Liver ([1]; 2 h after dosing): 2.46 (0.28) %ID
- Mean %ID, Lungs ([1]; 2 h after dosing): 1.25 (0.31) %ID
- Mean %ID, Pancreas ([1]; 2 h after dosing): 0.94 (0.22) %ID
- Mean %ID, Rest of the body ([1]; 2 h after dosing): 44.09 (5.00) %ID
- Mean %ID, Spleen ([1]; 2 h after dosing): 0.44 (0.04) %ID
- Mean %ID, Stomach ([1]; 2 h after dosing): 1.66 (0.16) %ID
- Mean %ID, Urine ([1]; 2 h after dosing): 3.94 (3.35) %ID
- Mean %ID/g, Blood ([1]; 2 h after dosing): 0.04 (0.00) %ID/g
- Mean %ID/g, Brain ([1]; 2 h after dosing): 0.07 (0.00) %ID/g
- Mean %ID/g, Heart ([1]; 2 h after dosing): 2.58 (0.24) %ID/g
- Mean %ID/g, Intestine ([1]; 2 h after dosing): 1.50 (0.24) %ID/g
- Mean %ID/g, Kidneys ([1]; 2 h after dosing): 5.10 (0.85) %ID/g
- Mean %ID/g, Liver ([1]; 2 h after dosing): 0.30 (0.04) %ID/g
- Mean %ID/g, Lungs ([1]; 2 h after dosing): 0.90 (0.22) %ID/g
- Mean %ID/g, Muscle ([1]; 2 h after dosing): 0.41 (0.09) %ID/g
- Mean %ID/g, Pancreas ([1]; 2 h after dosing): 1.55 (0.36) %ID/g
- Mean %ID/g, Spleen ([1]; 2 h after dosing): 0.84 (0.11) %ID/g
- Mean %ID/g, Stomach ([1]; 2 h after dosing): 1.23 (0.22) %ID/g
- Mean %ID, Brain ([1]; 4 h after dosing): 0.25 (0.04) %ID
- Mean %ID, Heart ([1]; 4 h after dosing): 2.15 (0.08) %ID
- Mean %ID, Intestine ([1]; 4 h after dosing): 30.51 (0.47) %ID
- Mean %ID, Kidneys ([1]; 4 h after dosing): 5.20 (0.36) %ID
- Mean %ID, Liver ([1]; 4 h after dosing): 1.71 (0.27) %ID
- Mean %ID, Lungs ([1]; 4 h after dosing): 0.89 (0.02) %ID
- Mean %ID, Pancreas ([1]; 4 h after dosing): 0.84 (0.35) %ID
- Mean %ID, Rest of the body ([1]; 4 h after dosing): 44.50 (2.38) %ID
- Mean %ID, Spleen ([1]; 4 h after dosing): 0.32 (0.03) %ID
- Mean %ID, Stomach ([1]; 4 h after dosing): 1.94 (0.38) %ID
- Mean %ID, Urine ([1]; 4 h after dosing): 12.42 (1.40) %ID
- Mean %ID/g, Blood ([1]; 4 h after dosing): 0.06 (0.02) %ID/g
- Mean %ID/g, Brain ([1]; 4 h after dosing): 0.13 (0.02) %ID/g
- Mean %ID/g, Heart ([1]; 4 h after dosing): 2.68 (0.44) %ID/g
- Mean %ID/g, Intestine ([1]; 4 h after dosing): 1.88 (0.10) %ID/g
- Mean %ID/g, Kidneys ([1]; 4 h after dosing): 2.86 (0.08) %ID/g
- Mean %ID/g, Liver ([1]; 4 h after dosing): 0.21 (0.05) %ID/g
- Mean %ID/g, Lungs ([1]; 4 h after dosing): 0.70 (0.02) %ID/g
- Mean %ID/g, Muscle ([1]; 4 h after dosing): 0.51 (0.04) %ID/g
- Mean %ID/g, Pancreas ([1]; 4 h after dosing): 1.56 (0.06) %ID/g
- Mean %ID/g, Spleen ([1]; 4 h after dosing): 0.66 (0.06) %ID/g
- Mean %ID/g, Stomach ([1]; 4 h after dosing): 1.58 (0.25) %ID/g
- Mean %ID, Brain ([1]; 6 h after dosing): 0.21 (0.02) %ID
- Mean %ID, Heart ([1]; 6 h after dosing): 2.27 (0.21) %ID
- Mean %ID, Intestine ([1]; 6 h after dosing): 33.4 ± 1.4 %ID
- Mean %ID, Kidneys ([1]; 6 h after dosing): 3.4 ± 0.4 %ID
- Mean %ID, Liver ([1]; 6 h after dosing): 1.07 (0.11) %ID
- Mean %ID, Lungs ([1]; 6 h after dosing): 0.78 (0.14) %ID
- Mean %ID, Pancreas ([1]; 6 h after dosing): 0.80 (0.05) %ID
- Mean %ID, Rest of the body ([1]; 6 h after dosing): 44.67 (1.68) %ID
- Mean %ID, Spleen ([1]; 6 h after dosing): 0.29 (0.02) %ID
- Mean %ID, Stomach ([1]; 6 h after dosing): 1.53 (0.15) %ID
- Mean %ID, Urine ([1]; 6 h after dosing): 15.27 (0.87) %ID
- Mean %ID/g, Blood ([1]; 6 h after dosing): 0.04 (0.01) %ID/g
- Mean %ID/g, Brain ([1]; 6 h after dosing): 0.13 (0.01) %ID/g
- Mean %ID/g, Heart ([1]; 6 h after dosing): 2.79 %ID/g
- Mean %ID/g, Intestine ([1]; 6 h after dosing): 2.00 (0.49) %ID/g
- Mean %ID/g, Kidneys ([1]; 6 h after dosing): 1.69 (0.22) %ID/g
- Mean %ID/g, Liver ([1]; 6 h after dosing): 0.12 (0.02) %ID/g
- Mean %ID/g, Lungs ([1]; 6 h after dosing): 0.55 (0.08) %ID/g
- Mean %ID/g, Muscle ([1]; 6 h after dosing): 0.53 (0.05) %ID/g
- Mean %ID/g, Pancreas ([1]; 6 h after dosing): 1.27 (0.10) %ID/g
- Mean %ID/g, Spleen ([1]; 6 h after dosing): 0.56 (0.02) %ID/g
- Mean %ID/g, Stomach ([1]; 6 h after dosing): 1.12 (0.12) %ID/g
- Mean %ID, Intestine [1, 3]: 33.42 (1.37) %ID
- Mean %ID, Kidneys [1, 3]: 3.44 (0.37) %ID
- retention in all other organs examined (other than intestine, kidneys) ([1]; ex vivo biodistribution): < 2 %ID/g
- myocardial uptake ([1]; from 2 to 6 h): 2.6–2.8 %ID/g
- uptake in the myocardium ([1]; up to 6 h): higher than 2.5 %ID/g
- myocardial uptake ([1]; within 1-hour post-injection): about 3.0 %ID/g
- AUCt ([2]; i.v.): 421 ng·h/mL
- Cl ([2]; i.v.): 0.2 mL/min/kg
- Cmax ([2]; i.v.): 76.39 ng/mL
- Tmax ([2]; i.v.): 0 h
- Vz ([2]; i.v.): 1.43 L/kg
- T½ ([2]; calculated from Eq. (0.693 · VZ · AUC)/dose): 79.9 h

From article PMC11231114 (EJNMMI Research, 2024)
